Results from ChEMBL document CHEMBL2074417, “The bisbenzylisoquinoline alkaloids, tetrandine and fangchinoline, enhance the cytotoxicity of multidrug resistance-related drugs via modulation of P-glycoprotein” (Anticancer Drugs, 1998).

Legend:
[1] = biological target: T1, ATP-dependent translocase ABCB1 (Homo sapiens, UniProt P08183); assay: TP_TRANSPORTER: increase in Rhodamine 123 intracellular accumulation (R123: 4 uM, Tetrandine: 3 uM) in HCT15 cells; type: functional, cell-based; settings: hct-15, 3 µM
[2] = biological target: T1, ATP-dependent translocase ABCB1; assay: TP_TRANSPORTER: increase in Rhodamine 123 intracellular accumulation (R123: 4 uM, Fangchinoline: 3 uM) in HCT15 cells; type: functional, cell-based; settings: hct-15, 3 µM

T1 sequence (P08183 whole entry): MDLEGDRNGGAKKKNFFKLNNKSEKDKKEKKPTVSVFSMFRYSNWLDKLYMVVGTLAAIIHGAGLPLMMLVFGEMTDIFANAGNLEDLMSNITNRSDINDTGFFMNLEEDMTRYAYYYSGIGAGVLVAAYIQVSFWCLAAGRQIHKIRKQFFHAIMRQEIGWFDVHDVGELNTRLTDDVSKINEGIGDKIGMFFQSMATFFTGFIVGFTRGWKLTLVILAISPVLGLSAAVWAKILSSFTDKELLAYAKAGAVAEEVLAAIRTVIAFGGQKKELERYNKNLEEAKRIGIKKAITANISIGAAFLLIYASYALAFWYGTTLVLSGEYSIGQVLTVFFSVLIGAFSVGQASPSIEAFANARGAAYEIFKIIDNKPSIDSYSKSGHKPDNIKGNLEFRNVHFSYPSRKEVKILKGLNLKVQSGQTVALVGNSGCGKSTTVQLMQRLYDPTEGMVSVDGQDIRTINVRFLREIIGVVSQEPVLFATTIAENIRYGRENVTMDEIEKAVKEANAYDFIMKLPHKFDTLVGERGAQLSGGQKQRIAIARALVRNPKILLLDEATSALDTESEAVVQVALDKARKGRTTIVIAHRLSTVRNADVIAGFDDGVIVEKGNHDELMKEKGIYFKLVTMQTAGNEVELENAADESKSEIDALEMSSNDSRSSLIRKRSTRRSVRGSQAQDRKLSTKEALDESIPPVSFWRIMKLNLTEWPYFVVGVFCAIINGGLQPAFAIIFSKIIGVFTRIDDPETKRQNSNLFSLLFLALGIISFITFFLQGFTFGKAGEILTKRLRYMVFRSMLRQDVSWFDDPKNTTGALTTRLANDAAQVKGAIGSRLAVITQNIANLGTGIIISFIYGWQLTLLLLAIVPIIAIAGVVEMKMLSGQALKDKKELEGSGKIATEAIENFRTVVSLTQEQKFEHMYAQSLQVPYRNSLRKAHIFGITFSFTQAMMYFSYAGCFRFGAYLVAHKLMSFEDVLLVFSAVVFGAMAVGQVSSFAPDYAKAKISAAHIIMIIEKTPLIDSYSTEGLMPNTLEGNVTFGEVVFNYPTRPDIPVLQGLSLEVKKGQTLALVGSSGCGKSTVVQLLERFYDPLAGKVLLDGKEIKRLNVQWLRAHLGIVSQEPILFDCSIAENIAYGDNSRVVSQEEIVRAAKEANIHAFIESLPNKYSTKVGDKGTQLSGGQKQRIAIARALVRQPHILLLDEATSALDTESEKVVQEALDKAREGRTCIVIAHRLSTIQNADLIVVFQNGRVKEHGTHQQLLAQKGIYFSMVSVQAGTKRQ

Compound	Activity [1]	Activity [2]
COc1ccc2cc1Oc1ccc(cc1)C[C@H]1c3cc(c(OC)cc3CCN1C)Oc1c(OC)c(OC)cc3c1[C@H](C2)N(C)CC3 [FANCHININ]	2.5 fold	–
COc1ccc2cc1Oc1ccc(cc1)C[C@H]1c3cc(c(OC)cc3CCN1C)Oc1c(O)c(OC)cc3c1[C@H](C2)N(C)CC3 [FANGCHINOLINE]	–	2.4 fold
